Reference: patent publication US12257352B2, “Compositions and methods for delivery of biomacromolecule agents” (The Regents of the University of Michigan, priority 2016, dated 2025)
Peptide text beside a SMILES is read from it. * marks the point of attachment. FITC = O=C1OC2(c3ccc(O)cc3Oc3cc(O)ccc32)c2ccc(NC(=S)*)cc21

Test: Lymph node draining of antigen peptide and Cho-CpG (IVIS)
Assay type: in vivo, C57BL/6 mice
Details: 31 nmol FITC-tagged Ag subcutaneously at tail base, after 1 day
Procedure: Female C57BL/6 mice of age 6-8 weeks were purchased from Harlan Laboratories. […] 24 hours after injection, mice were euthanized by carbon dioxide inhalation and axillary lymph nodes and inguinal lymph nodes were harvested and imaged with IVIS optical imaging system (Caliper Lifesciences).
After 24 h, inguinal lymph nodes were harvested, and FITC or Cy5 fluorescence signal was measured with IVIS optical imaging system (Caliper Life Sciences).

CC[C@H](C)[C@H](NC(=O)[C@H](CO)NC(=O)[C@H](CO)NC(=O)[C@H](CO)NC(=O)[C@@H](N)CS)C(=O)N[C@H](C(=O)N[C@@H](CC(N)=O)C(=O)N[C@@H](Cc1ccccc1)C(=O)N[C@@H](CCC(=O)O)C(=O)N[C@@H](CCCCNC(=S)Nc1ccc2c(c1)C(=O)OC21c2ccc(O)cc2Oc2cc(O)ccc21)C(=O)N[C@@H](CC(C)C)C(=O)O)[C@@H](C)CC [free CSS-SIINFEK(FITC)L] (H-CSSSIINFEK(FITC)L-OH)
FITC signal in inguinal dLNs: minimal FITC signal in inguinal dLNs
